“And” between values parts separate entries of the source, which are not always exact repeats. Identical values can stand only once.

The source of these data is patent US20120035161A1, “Novel Compositions and Methods of Treating Diseases Using the Same” (CORRIDOR PHARMACEUTICALS, INC., priority 2006, published 2012).

In series [1] the target is T1, Serotonin (5-Hydroxytryptamine) 5-HT1A (Homo sapiens, UniProt P08908).
T1 construct: expressed in transfected cells; host or cells: CHO cells
T1 sequence (P08908 1-422): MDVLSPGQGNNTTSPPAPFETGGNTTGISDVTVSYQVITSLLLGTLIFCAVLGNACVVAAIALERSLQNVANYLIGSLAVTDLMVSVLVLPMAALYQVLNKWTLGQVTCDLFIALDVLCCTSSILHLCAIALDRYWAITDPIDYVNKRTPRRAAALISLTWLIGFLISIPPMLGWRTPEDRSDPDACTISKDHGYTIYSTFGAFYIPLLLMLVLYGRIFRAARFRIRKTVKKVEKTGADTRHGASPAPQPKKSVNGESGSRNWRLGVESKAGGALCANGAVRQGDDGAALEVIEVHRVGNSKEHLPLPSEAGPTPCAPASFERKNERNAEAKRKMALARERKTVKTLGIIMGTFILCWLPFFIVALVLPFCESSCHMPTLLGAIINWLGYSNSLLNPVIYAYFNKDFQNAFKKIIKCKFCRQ
In words: Radioligand binding, 5-HT1A ([3H] 8-OH-DPAT). As for the experimental part: (§1) The methods employed in this study have been adapted from the scientific literature to maximize reliability and reproducibility. Reference standards were run as an integral part of each assay to ensure the validity of the results obtained. Assays were performed under conditions as described below. Where presented, IC50 values were determined by a non-linear, least squares regression analysis using the Data Analysis Toolbox (MDL Information Systems, San Leandro, Calif., USA). Where inhibition constants (Ki) are presented, the Ki values were calculated using the equation of Cheng and Prusoff (Cheng, Y., Prusoff, W. H., Biochem. Pharmacol. 22:3099-3108, 1973) using the observed IC50 of the tested compound, the concentration of radioligand employed in the assay, and historical values for the KD of the ligand. Where presented, the Hill coefficient (nu), defining the slope of the competitive binding curve, was calculated using the Data Analysis Toolbox.

Series [2] concerns Serotonin (5-Hydroxytryptamine) 5-HT2, Non-Selective. In words: Assay 271600 radioligand binding, 5-HT2 non-selective. Details: species or system Wistar Rat. As for the experimental part:
as §1

In series [3] the test system is Aspergillus fumigatus-based mouse asthma model. Put plainly: Aspergillus fumigatus-based mouse asthma model, lung resistance. It counts as in vivo. The following applies: 20 mg/ml, intraperitoneally; for Lung resistance: A. fumigatus insult, day 29. As for the experimental part:
Compounds of the invention were also tested for efficiacy in an asthma model.
A cohort of mice was administered intraperitoneal injections of Aspergillus fumigatus on days 0, 14, 26, 27, and 28. Lung resistance was tested on day 29 immediately following a tracheotomy/methacholine procedure. Animals receiving dexamethasone were administered dexamethasone on days 26, 27 and 28. Animals receiving a compound of the invention were administered the compound just hours before the lung resistance test. As a control, all test compounds, as well as dexamethasone, were also administered to mice in the absence of an A. fumigatus insult.

The test system of the next series is TNF-α. Put plainly: Model of LPS-mediated cytokine production, serum TNF-α. It counts as in vivo, CD1:ICR mice. The conditions noted are these: 10 mg/kg. As for the experimental part:
Both ICI-685 and ICI-735 were formulated in water. For the time course study, both drugs were formulated at a concentration of 1 mg/ml and dosed 10 ml/kg to produce a dose of 10 mg/kg. For the dose-response study, drug was formulated at concentrations of 0.05, 0.2 and 0.5 mg/ml and dosed at a volume of 10 ml/kg to produce doses of 0.5, 2 and 5 mg/kg, respectively. Animals were dosed IV or IP.
CD1:ICR mice were obtained from Harlan (Indianapolis, Ind.) at 6 weeks of age. Animals were housed 5 per cage, kept on a 12 hr light dark cycle and fed food and water ad libitum. Animals were tested at 8-10 weeks of age.
Lipopolysaccharide (heat killed E. coli 0127:B5; Sigma Aldrich) was prepared in distilled water at a concentration of 0.025 mg/ml. LPS was dosed at a volume of 10 ml/kg (IP) to produce a final dose of 0.25 mg/kg (approximately 7.5 μg/mouse). Drugs were dosed prior to LPS administration as indicated elsewhere herein. Blood was collected by retro-orbital eye bleed 90 minutes after LPS administration, Serum was prepared from blood and TNF-α and IL-1β levels were measured by using the OPT-EIA mouse TNF-α and IL-1β ELISA kits (BD Biosciences) as per directions of the manufacturer.
The first study was designed to determine the optimal route of administration and the optimal pre-treatment time. Two pre-dose time course studies were conducted. The first (Study 1A) was conducted with 3 pre-dose time points (2, 6 and 18 hrs). The second was conducted at 0, 1 and 2 hr predose time points. For both studies, drug was dosed IP or IV.
Using data from the first study, a second study was conducted that was designed to measure dose-response activity of each compound. Compounds were tested at doses of […]., 2.0 and 5 mg/kg using the route and pre-treatment time that produced the best activity.
Compounds ICI-715, ICI-824, ICI-953 and ICI-954 were formulated in water. For the time course study, drugs were formulated at a concentration of 1 mg/ml and dosed 10 ml/kg to produce a dose of 10 mg/kg. For the dose-response study, drugs were formulated at concentrations of 0.05, 0.2 and 0.5 mg/ml and dosed at a volume of 10 ml/kg to produce doses of 0.5, 2 and 5 mg/kg, respectively. Animals were dosed IV or IP.
Lipopolysaccharide (heat killed E. coli 0127:B5; Sigma Aldrich) was prepared in distilled water at a concentration of 0.025 mg/ml, LPS was dosed at a volume of 10 ml/kg (IP) to produce a final dose of 0.25 mg/kg (approximately […]). Drugs were dosed prior to LPS administration as indicated above. Blood was collected by retro-orbital eye bleed 90 minutes after LPS administration. Serum was prepared from blood and TNF-α and IL-1β levels were measured by using the OPT-EIA mouse TNF-α and IL-1β ELISA kits (BD Biosciences) as per directions of the manufacturer.
The first study was designed to determine the optimal route of administration and the optimal pre-treatment time. One pre-dose time course was conducted (for all compounds) with compounds administered at 0, 1 and 2 hrs prior to LPS treatment. For both studies, drug was dosed IP or IV. The IP study and IV study were conducted on separate days.
Using data from the first study, a second study was conducted that was designed to measure dose-response activity of each compound. Compounds were tested at doses of 0.5, 2.0 and 5 mg/kg using the route and pre-treatment time that produced the best activity.

The target in series [4] is T2, Serotonin (5-Hydroxytryptamine) 5-HT1B (Rattus norvegicus, UniProt P28564).
T2 construct: from tissue
In words: Assay 271200 radioligand binding, 5-HT1B. Further details: species or system Wistar Rat. As for the experimental part:
as §1

Series [5] relates to Serotonin (5-Hydroxytryptamine) 5-HT1, Non-Selective. Put plainly: Assay 271000 radioligand binding, 5-HT1 non-selective. Further details: species or system Wistar Rat. On the procedure:
as §1

The test system of series [6] is rheumatoid arthritis (RA) animal model. Put plainly: Clinical arthritis score in mice sensitized with collagen injections. It counts as in vivo. As for the experimental part: FIGS. 26-28 illustrate the effect of various compounds of the invention on the clinical arthritis score of mice treated with various compounds of the invention.
Additional testing of the effectiveness of compounds ICI-685, ICI-735 and ICI-847 at higher and lower concentrations were conducted, as illustrated in FIG. 29.

The test system of series [7] is cryopreserved mixed gender human hepatocytes. Put plainly: Hepatocyte stability assay. It counts as in vitro ADME. On the procedure:
Test compounds (5 μM) were incubated with cryopreserved mixed gender human hepatocytes pooled from at least 3 donors. Cell viability of hepatocytes was assessed by a Trypan Blue assay prior to the initiation of the stability assay. The final hepatocyte cell density was 1.5×10^6 viable cells/mL, Samples were taken at 2 time points: 0 and 60 minutes. As positive controls, testosterone (20 μM) and 7-hydroxy-coumarin (100 μM) were incubated and sampled at 5 time points: 0, 15, 30, 60, and 120 minutes. Aliquots were removed and combined (50/50) with acetonitrile to terminate the reaction. Samples were mixed for 10 minutes and centrifuged. The supernatants were transferred to vial for analysis by HRMS. In this assay, both test compound and a des-glycine metabolite (M1) are quantified based on peak area response ratios.
The enzymatic activities of the human cryopreserved hepatocytes used in this study were verified in parallel by determining the disappearance of testosterone (expressed as half-life) and the formation of 7-hydroxycoumarin glucuronide and 7-hydroxycoumarin sulfate (expressed as a formation rate).

Where [8] appears, read: T = 60 minutes, 5 μM test compound.

T2 sequence (P28564 whole entry): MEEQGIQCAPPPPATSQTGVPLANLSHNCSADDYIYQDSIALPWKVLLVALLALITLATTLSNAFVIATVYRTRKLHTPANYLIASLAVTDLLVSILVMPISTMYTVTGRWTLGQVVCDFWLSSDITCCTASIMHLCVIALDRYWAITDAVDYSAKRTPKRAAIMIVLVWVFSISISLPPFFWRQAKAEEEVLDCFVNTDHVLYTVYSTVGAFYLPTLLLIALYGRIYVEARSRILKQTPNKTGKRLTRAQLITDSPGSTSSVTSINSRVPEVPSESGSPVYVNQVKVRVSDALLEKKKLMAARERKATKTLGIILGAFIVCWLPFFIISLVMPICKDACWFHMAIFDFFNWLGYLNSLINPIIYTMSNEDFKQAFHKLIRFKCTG

`FC(F)(F)c1ccc2c(c1)N(CCCN1CCNCC1)c1ccccc1S2` [ICI-685]: the inhibition (as a rule, the drop in the measured response relative to a control, in per cent) at 0.1 µM in series [1] worked out at 1%; in series [4], 6%. Besides, the inhibition at 10 µM in series [1] amounted to 26%; in series [4], 10%. In addition, the “% INHIBITION” value in series [2] (0.1 μM) was 31%; in series [2] (10 μM) it was 82%; in series [5] (0.1 μM), −3%; in series [5] (10 μM), 32%. This molecule showed a Lung resistance in series [3] of 12 cm H2O/ml/s. The inhibition at 10 mg/kg in the series on TNF-α (Mus musculus, second pre-dose time course study, read-out: inhibition of TNFα) was 70%. Moreover, the “inhibition of TNFα levels” value with TNF-α (first time course, 2 hr pretreatment period, IV administration) was “did not inhibit”. Further, the “inhibition of LPS-stimulated TNFα secretion” value in the series with TNF-α (pre-dose time course, IV or IP) is on record as “inhibited”.
Turning to `NCCCN1CCC(CCCN2c3ccccc3Sc3ccc(C(F)(F)F)cc32)CC1` [ICI-847], the inhibition at 0.1 µM is -8% in series [1] and -5% in series [4]. In addition, the inhibition at 10 µM was 74% in series [1] and -33% in series [4]. Further, the “effectiveness at treating RA compared with dexamethasone” value in series [6] (30 mg/kg, FIG. 29) was “as effective for the length of the study as is dexamethasone”. Moreover, the “clinical arthritis score compared with dexamethasone” value in series [6] (orally 10 mg/kg daily, about 21 days, FIG. 26) is “as effective as dexamethasone”. Besides, the “% INHIBITION” value in series [2] (0.1 μM) was 3%; in series [2] (10 μM) it was 82%; in series [5] (0.1 μM) it was −11%; in series [5] (10 μM), −7%. The same molecule showed a Lung resistance in series [3] of 7.25 cm H2O/ml/s. The “decreasing lung resistance compared with dexamethasone” value in series [3] is listed as “at least as effective as dexamethasone”.
On to `CC(C)(N)C(=O)NCCN1CCN(CCCN2c3ccccc3Sc3ccc(C(F)(F)F)cc32)CC1` [Compound 36a, 2-Amino-2-methyl-N-(2-(4-(3-(2-(trifluoromethyl)-10H-phenothiazin-10-yl)propyl)piperazin-1-yl)ethyl)propanamide], for which the “Relative Level (%)” value in series [7] (T = 0 minutes, 5 μM test compound) is 97.3% and 102.8%; in series [7] (setting [8]) it was 99.0% and 109.1%. The “Peak Areas” value in series [7] (setting [8]) is 3.42E+06 and 3.82E+06. Also, the “susceptibility to the metabolic transformation to the metabolite M1” value in series [7] (compared with ICI-735) is recorded as “less susceptible”.
In turn, `C[C@@H]1C[C@H]2[C@@H]3CCC4=CC(=O)C=C[C@]4(C)[C@@]3(F)[C@@H](O)C[C@]2(C)[C@@]1(O)C(=O)CO` [Dexamethasone, reference compound] came in with a Lung resistance in series [3] of 7.75 cm H2O/ml/s.
